17 compounds from US8609836B2, “4-aryl-2-anilino-pyrimidines” (Janssen Pharmaceutica NV, priority 2008, dated 2013) can be followed below.

The target in one test is PLK3 (h) (Homo sapiens, UniProt Q9H4B4). In words: PLK3 human kinase inhibition, SPA. Conditions: read-out: PLK3 pIC50 (converted). Format: biochemical. In short, it runs like this:
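Radiometric scintillation proximity format at pH 8.0 (Hepes, MnCl2, DTT). The 2 μM biotin-peptide substrate is phosphorylated by PLK3 (h) (30 μg/ml) using 0.1 μM ATP traced with 33P, for 20 min at room temperature. EDTA stop; phosphopeptide captured on streptavidin beads and imaged.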

The target in the next test is AuroraB (h) (Homo sapiens, UniProt Q96GD4). In words: Aurora-B human kinase inhibition, SPA. Format: biochemical. As to conditions: read-out: AuroraB pIC50 (converted). The method in brief: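 AuroraB (0.5 μg/ml) phosphorylates 3 μM biotin-peptide using 0.5 μM ATP spiked with 33P-ATP in Hepes pH 7.5 with 3 mM MgCl2 and MnCl2, for 60 min at room temperature. EDTA stop solution carries streptavidin scintillant beads, and the captured radiolabel is imaged.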

The target in a further test is CDK4/CyclinD1 (h) (Homo sapiens, UniProt P11802). Description: CDK4/CyclinD1 human kinase inhibition, SPA with GST-pRb substrate. It is filed as biochemical. Conditions: read-out: CDK4 pIC50 (converted). In short, it runs like this:
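Scintillation proximity format: after EDTA/Triton stop containing glutathione SPA beads, 33P incorporation was counted. The reaction ran 60 min at room temperature in Hepes pH 7.5 with NaF, MgCl2, DTT, using 2.5 μg/ml human CDK4/CyclinD1, 40 μg/ml GST-pRb substrate and 2 nM [γ-33P]ATP.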

For a further test, the system named is MDA-MB-231. In words: Cellular proliferation assay (Alamar blue), MDA-MB-231. It is filed as cell-based. Conditions: Homo sapiens, 10% FCS, 72 hours with compound, Alamar blue 24 h, read-out: MDA/MB231 (cellular proliferation assay, Table 4) (converted). The method in brief: (§1)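 After a 24 h compound-free attachment period, cells in 10% FCS medium are treated for 72 h at 37° C. Resazurin conversion is then quantified by fluorescence, with dye incubation lasting 4 h for HCT-116, 6 h for U87-MG and 24 h for A2780 or MDA-MB-231.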

The next test has as its target GSK3β (h) (Homo sapiens, UniProt P49841). Description: GSK-3β human kinase inhibition, SPA. Format: biochemical. As to conditions: read-out: GSK3b pIC50 (converted). In short, it runs like this: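 Radiometric: 33P-labelled peptide captured on streptavidin SPA beads after EDTA stop and imaged on Leadseeker. Reaction ran 1 h at RT, 1 μM cold ATP with 2 nM [γ-33P]ATP, 1 μM biotin-peptide substrate, human GSK3β 1 μg/ml, pH 7.4 Tris buffer.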

Another test deals with A2780. In words: Cellular proliferation assay (Alamar blue), A2780. As to conditions: Homo sapiens, 10% FCS, 72 hours with compound, Alamar blue 24 h, read-out: A2780 (cellular proliferation assay, Table 4) (converted). Format: cell-based. In short, it runs like this: as §1
The next test relates to HCT-116. In words: Cellular proliferation assay (Alamar blue), HCT-116. Format: cell-based. Conditions: Homo sapiens, 10% FCS, 72 hours with compound, Alamar blue 4 h. In short, it runs like this:
as §1

For another test, the target named is PLK2 (h) (Homo sapiens, UniProt Q9NYY3). Description: PLK2 human kinase inhibition, SPA. Format: biochemical. Conditions: read-out: PLK2 pIC50 (converted). In short, it runs like this: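 33P incorporation into a biotinylated peptide (2 μM) was captured on streptavidin PVT beads and imaged on Leadseeker. Enzyme at 30 μg/ml, ATP 0.1 μM with 2 nM [γ-33P]ATP, Hepes pH 8.0 with MnCl2 and DTT. Incubation was 20 min at room temperature.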

A further test has as its target PLK4 (h) (Homo sapiens, UniProt O00444). In words: PLK-4 human kinase inhibition, scintillation proximity assay (SPA). Format: biochemical. As to conditions: read-out: PLK4 pIC50 (converted).

GSK3β (h), sequence (P49841 whole entry): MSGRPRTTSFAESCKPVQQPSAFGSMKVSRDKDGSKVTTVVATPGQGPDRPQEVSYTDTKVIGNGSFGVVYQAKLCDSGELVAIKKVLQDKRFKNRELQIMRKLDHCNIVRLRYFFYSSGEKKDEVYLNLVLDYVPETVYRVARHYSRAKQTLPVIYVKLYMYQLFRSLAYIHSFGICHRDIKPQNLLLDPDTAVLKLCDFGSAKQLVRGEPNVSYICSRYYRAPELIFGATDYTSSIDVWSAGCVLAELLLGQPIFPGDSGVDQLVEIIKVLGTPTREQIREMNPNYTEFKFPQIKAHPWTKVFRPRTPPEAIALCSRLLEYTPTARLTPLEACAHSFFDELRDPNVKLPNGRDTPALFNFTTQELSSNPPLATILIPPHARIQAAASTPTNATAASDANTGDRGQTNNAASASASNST
AuroraB (h), sequence (Q96GD4 whole entry): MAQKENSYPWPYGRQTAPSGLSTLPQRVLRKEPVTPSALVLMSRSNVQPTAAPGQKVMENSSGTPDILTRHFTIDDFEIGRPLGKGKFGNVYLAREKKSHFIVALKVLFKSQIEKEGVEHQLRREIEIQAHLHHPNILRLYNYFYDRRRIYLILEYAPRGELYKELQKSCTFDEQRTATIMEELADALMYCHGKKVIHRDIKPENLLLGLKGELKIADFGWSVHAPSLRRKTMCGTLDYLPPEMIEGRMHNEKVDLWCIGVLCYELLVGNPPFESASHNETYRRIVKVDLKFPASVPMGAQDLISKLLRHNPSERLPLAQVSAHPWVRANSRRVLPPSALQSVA
CDK4/CyclinD1 (h), sequence (P11802 whole entry): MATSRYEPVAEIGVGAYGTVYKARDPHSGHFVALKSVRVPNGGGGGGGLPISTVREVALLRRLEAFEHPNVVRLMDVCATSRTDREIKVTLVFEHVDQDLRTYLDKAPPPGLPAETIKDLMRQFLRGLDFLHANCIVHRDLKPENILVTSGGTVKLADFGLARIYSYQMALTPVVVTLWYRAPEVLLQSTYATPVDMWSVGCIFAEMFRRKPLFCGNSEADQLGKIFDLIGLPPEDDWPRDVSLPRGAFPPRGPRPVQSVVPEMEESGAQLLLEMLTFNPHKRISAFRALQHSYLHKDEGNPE
CDK4/CyclinD1 (h), sequence (P24385 whole entry partner): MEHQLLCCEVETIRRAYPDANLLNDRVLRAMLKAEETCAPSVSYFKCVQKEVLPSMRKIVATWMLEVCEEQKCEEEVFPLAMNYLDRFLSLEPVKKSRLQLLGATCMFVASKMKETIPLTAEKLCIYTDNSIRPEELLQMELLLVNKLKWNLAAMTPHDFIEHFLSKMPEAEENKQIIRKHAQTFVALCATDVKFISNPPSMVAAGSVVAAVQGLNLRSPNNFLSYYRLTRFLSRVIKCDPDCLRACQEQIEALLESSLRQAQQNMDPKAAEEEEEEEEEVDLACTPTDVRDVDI
PLK3 (h), sequence (Q9H4B4 whole entry): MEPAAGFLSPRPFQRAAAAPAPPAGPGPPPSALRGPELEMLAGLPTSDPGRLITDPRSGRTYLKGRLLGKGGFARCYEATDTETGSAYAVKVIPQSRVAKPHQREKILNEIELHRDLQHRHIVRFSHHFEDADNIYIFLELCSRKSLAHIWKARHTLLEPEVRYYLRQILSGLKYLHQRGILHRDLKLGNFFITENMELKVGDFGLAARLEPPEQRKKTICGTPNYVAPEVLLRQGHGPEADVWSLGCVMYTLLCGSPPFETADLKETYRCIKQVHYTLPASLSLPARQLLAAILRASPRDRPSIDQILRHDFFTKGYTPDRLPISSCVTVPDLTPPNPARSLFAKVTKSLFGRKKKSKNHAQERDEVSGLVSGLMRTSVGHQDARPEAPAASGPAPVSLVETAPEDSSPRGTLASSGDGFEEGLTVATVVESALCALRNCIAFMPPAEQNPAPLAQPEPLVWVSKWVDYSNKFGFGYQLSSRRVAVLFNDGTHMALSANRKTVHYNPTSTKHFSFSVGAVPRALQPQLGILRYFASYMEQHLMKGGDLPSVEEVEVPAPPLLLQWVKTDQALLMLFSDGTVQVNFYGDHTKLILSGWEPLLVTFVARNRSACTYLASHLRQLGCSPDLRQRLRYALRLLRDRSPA
PLK2 (h), sequence (Q9NYY3 whole entry): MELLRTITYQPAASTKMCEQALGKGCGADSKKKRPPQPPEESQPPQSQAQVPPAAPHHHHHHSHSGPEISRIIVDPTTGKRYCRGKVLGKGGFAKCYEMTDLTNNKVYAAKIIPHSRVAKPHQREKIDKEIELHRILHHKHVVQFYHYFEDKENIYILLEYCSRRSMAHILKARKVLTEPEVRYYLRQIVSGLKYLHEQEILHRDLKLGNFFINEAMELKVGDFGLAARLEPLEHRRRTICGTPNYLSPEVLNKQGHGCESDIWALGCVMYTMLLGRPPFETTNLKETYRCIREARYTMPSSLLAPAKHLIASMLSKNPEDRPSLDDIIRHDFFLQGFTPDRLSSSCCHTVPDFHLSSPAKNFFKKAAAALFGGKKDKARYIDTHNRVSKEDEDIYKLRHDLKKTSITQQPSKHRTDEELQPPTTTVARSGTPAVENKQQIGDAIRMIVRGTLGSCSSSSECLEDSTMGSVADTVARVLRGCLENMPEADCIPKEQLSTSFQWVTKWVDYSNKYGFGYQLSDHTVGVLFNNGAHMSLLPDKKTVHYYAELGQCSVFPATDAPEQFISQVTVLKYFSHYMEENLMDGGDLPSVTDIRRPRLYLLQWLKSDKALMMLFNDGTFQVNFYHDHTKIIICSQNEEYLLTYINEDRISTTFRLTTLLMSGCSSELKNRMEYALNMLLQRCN
PLK4 (h), sequence (O00444 whole entry): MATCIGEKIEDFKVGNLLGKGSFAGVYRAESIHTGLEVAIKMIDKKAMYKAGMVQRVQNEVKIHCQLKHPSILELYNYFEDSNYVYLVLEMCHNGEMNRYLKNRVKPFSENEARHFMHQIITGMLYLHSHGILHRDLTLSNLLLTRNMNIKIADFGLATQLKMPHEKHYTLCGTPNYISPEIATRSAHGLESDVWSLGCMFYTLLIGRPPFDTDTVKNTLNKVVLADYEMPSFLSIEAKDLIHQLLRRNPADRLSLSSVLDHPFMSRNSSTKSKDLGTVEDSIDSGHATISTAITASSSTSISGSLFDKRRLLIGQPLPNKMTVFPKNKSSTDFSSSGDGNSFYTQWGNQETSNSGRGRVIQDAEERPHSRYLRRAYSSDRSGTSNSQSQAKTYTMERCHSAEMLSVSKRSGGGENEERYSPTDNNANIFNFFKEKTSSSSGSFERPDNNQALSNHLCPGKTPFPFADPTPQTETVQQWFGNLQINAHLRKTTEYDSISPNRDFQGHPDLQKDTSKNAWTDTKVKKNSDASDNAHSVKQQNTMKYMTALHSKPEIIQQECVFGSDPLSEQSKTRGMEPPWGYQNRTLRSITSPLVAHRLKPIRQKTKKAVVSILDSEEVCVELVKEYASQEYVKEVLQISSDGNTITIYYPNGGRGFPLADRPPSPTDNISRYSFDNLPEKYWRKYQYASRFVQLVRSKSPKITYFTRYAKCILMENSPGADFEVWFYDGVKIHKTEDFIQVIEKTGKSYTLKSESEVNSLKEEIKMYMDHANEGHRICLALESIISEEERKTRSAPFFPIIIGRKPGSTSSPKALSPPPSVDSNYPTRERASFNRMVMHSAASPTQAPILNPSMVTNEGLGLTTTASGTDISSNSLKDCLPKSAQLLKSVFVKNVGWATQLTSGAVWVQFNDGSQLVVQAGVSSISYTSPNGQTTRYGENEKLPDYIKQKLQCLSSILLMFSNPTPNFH

On to `COc1ccc2cc1CN(C)CCCNC(=O)C1CCN(CC1)Cc1cccc(c1)Nc1nccc-2n1` [Compound 81], for which the IC50 on PLK3 (h), at AuroraB (h), at CDK4/CyclinD1 (h), in the test with MDA-MB-231, at GSK3β (h) and with A2780 was greater than 10 µM each time. Moreover, the IC50 with HCT-116 is greater than 10 µM; on PLK2 (h), greater than 10 µM; on PLK4 (h), 5.5 µM.

Regarding `COc1ccc2cc1CN(C)CCCNC(=O)CN1CCN(CC1)Cc1cc(Br)cc(c1)Nc1nccc-2n1` [Compound 144], the IC50 is greater than 10 µM on PLK3 (h); 7.94 µM on AuroraB (h); greater than 10 µM at CDK4/CyclinD1 (h); greater than 10 µM with MDA-MB-231; greater than 10 µM at GSK3β (h); greater than 10 µM with A2780. Further, the IC50 in the test on HCT-116 was greater than 10 µM; at PLK2 (h), greater than 10 µM; on PLK4 (h), 4.17 µM.

As for `O=C1NCCCOc2ccc(cc2)-c2ccnc(n2)Nc2ccc(N3CCOCC3)c(c2)CN2CCC1CC2` [Compound 92], the IC50 at PLK3 (h) is greater than 10 µM; at AuroraB (h), greater than 10 µM; on CDK4/CyclinD1 (h), 0.891 µM; with MDA-MB-231, 2.51 µM; at GSK3β (h), 1.32 µM; with A2780, 0.525 µM. For the same compound, the IC50 was 0.309 µM in the test on HCT-116, greater than 10 µM on PLK2 (h) and 0.398 µM on PLK4 (h).

Turning to `O=C1NCc2cccc(c2)-c2ccnc(n2)Nc2cc(CNC3CCCCC3)cc(c2)CN2CCC[C@@H]12` [Compound 36], the IC50 at PLK3 (h) is greater than 10 µM; at AuroraB (h), 8.13 µM; on CDK4/CyclinD1 (h), 1.2 µM; in the test on MDA-MB-231, 1.82 µM; at GSK3β (h) it was 0.129 µM; in the test with A2780 it was 0.55 µM. Besides, the IC50 in the test with HCT-116 was 0.372 µM; at PLK2 (h) it was greater than 10 µM; at PLK4 (h) it was 0.219 µM.

For `O=C1CN2CCN(CC2)Cc2cc(ccc2N2CCOCC2)Nc2nccc(n2)-c2cccc(c2)OCCCN1` [Compound 103], the IC50 at PLK3 (h) was greater than 10 µM; on AuroraB (h), greater than 10 µM; at CDK4/CyclinD1 (h), greater than 10 µM; in the test on MDA-MB-231, greater than 10 µM; at GSK3β (h), 1.55 µM; in the test on A2780, greater than 10 µM. Besides, the IC50 with HCT-116 is greater than 10 µM; on PLK2 (h), greater than 10 µM; on PLK4 (h), 1.1 µM.

Consider `C[C@H]1NCc2cc(ccc2N2CCOCC2)Nc2nccc(n2)-c2ccc(cc2)OCCCNC1=O` [Compound 86], for which the IC50 was greater than 10 µM at PLK3 (h); 10.5 µM on AuroraB (h); 0.49 µM at CDK4/CyclinD1 (h); greater than 10 µM in the test with MDA-MB-231; 0.0692 µM at GSK3β (h); greater than 10 µM in the test with A2780. In addition, the values for the IC50 in the test on HCT-116, at PLK2 (h) and at PLK4 (h) were greater than 10 µM, greater than 10 µM and 0.209 µM, respectively.

On to `O=C(NC1CCCCC1)c1ccc2cc1CN1CCC[C@H]1C(=O)NCc1cccc(c1)-c1ccnc(n1)N2` [Compound 41], for which the IC50 on PLK3 (h) is greater than 10 µM; at AuroraB (h), greater than 10 µM; on CDK4/CyclinD1 (h) it was 5.62 µM; with MDA-MB-231, greater than 10 µM; at GSK3β (h) it was 0.263 µM; in the test with A2780 it was greater than 10 µM. In addition, the IC50 was 3.89 µM in the test on HCT-116, greater than 10 µM on PLK2 (h) and 0.347 µM at PLK4 (h).

In the case of `COc1ccc2cc1CN1CCC(CC1)C(=O)N(C)CCN(C)c1ccc(cn1)-c1ccnc(n1)N2` [Compound 4], the IC50 on PLK3 (h) is greater than 10 µM; at AuroraB (h) it was greater than 10 µM; on CDK4/CyclinD1 (h) it was 1.91 µM; with MDA-MB-231 it was greater than 10 µM; on GSK3β (h) it was 3.63 µM; in the test with A2780, greater than 10 µM. Besides, the IC50 was 5.25 µM in the test with HCT-116, greater than 10 µM at PLK2 (h) and 2.4 µM at PLK4 (h).

As for `CN1CCNC(=O)C2CCN(CC2)Cc2cc(Br)cc(c2)Nc2nccc(n2)-c2ccc(cc2)C1` [Compound 60], the IC50 is greater than 10 µM at PLK3 (h); 6.31 µM on AuroraB (h); greater than 10 µM at CDK4/CyclinD1 (h); greater than 10 µM in the test on MDA-MB-231; 2.75 µM on GSK3β (h); 7.59 µM in the test with A2780. The IC50 was 1.58 µM in the test on HCT-116, greater than 10 µM at PLK2 (h) and 0.537 µM on PLK4 (h).

On to `O=C1NCCCOc2cccc(c2)-c2ccnc(n2)Nc2ccc(N3CCOCC3)c(c2)CN[C@H]1Cc1ccccc1` [Compound 91], for which the IC50 on PLK3 (h) was greater than 10 µM; at AuroraB (h), greater than 10 µM; at CDK4/CyclinD1 (h) it was greater than 10 µM; in the test on MDA-MB-231 it was greater than 10 µM; at GSK3β (h), 2.69 µM; with A2780 it was greater than 10 µM. Further, the results for the IC50 with HCT-116, at PLK2 (h) and at PLK4 (h) were 6.17 µM, greater than 10 µM and 1.41 µM, respectively.

`COc1ccc2cc1CNCCNC(=O)[C@@H]1C[C@@H](O)CN1Cc1cc(ccc1N1CCOCC1)Nc1nccc-2n1` [Compound 177]: the IC50 at PLK3 (h), at AuroraB (h), at CDK4/CyclinD1 (h), in the test with MDA-MB-231, at GSK3β (h) and in the test on A2780 was greater than 10 µM each time. In addition, the IC50 in the test with HCT-116, on PLK2 (h) and on PLK4 (h) was greater than 10 µM throughout.

`C[C@H]1NCc2cc(ccc2N2CCOCC2)Nc2nccc(n2)-c2cccc(c2)OCCCNC1=O` [Compound 87]: the IC50 was greater than 10 µM at PLK3 (h); greater than 10 µM on AuroraB (h); 1.26 µM at CDK4/CyclinD1 (h); 8.13 µM with MDA-MB-231; 0.214 µM at GSK3β (h); 8.71 µM in the test on A2780. The IC50 in the test on HCT-116 was 3.8 µM; at PLK2 (h), greater than 10 µM; at PLK4 (h), 0.407 µM.

`CN1CCCNC(=O)[C@H](CO)NCc2cc(cc(N3CCOCC3)c2)Nc2nccc(n2)-c2ccc(cc2)C1` [Compound 10]: the IC50 is greater than 10 µM at PLK3 (h); 9.33 µM at AuroraB (h); greater than 10 µM at CDK4/CyclinD1 (h); greater than 10 µM in the test on MDA-MB-231; roughly 10 µM at GSK3β (h); greater than 10 µM in the test on A2780. Besides, the IC50 is greater than 10 µM in the test with HCT-116, greater than 10 µM at PLK2 (h) and 0.513 µM on PLK4 (h).

For the compound `CN(C)CCNCc1cc2cc(c1)Nc1nccc(n1)-c1cccc(c1)CNC(=O)[C@@H]1CCCN1C2` [Compound 31], the IC50 was greater than 10 µM at PLK3 (h); greater than 10 µM at AuroraB (h); 1 µM at CDK4/CyclinD1 (h); 1.55 µM in the test on MDA-MB-231; 0.11 µM on GSK3β (h); 5.01 µM with A2780. Also, the IC50 with HCT-116 is 1.02 µM; on PLK2 (h), greater than 10 µM; at PLK4 (h), 0.166 µM.

Regarding `COc1ccc2cc1CN(C)CCCNC(=O)[C@@H]1CCCN1Cc1cccc(c1)Nc1nccc-2n1` [Compound 180], the IC50 at PLK3 (h), at AuroraB (h), on CDK4/CyclinD1 (h), in the test with MDA-MB-231, at GSK3β (h) and in the test with A2780 was greater than 10 µM throughout. The IC50 in the test on HCT-116, on PLK2 (h) and on PLK4 (h) was greater than 10 µM throughout.

For `COCCNC(=O)c1ccc2cc1CN1CCC[C@H]1C(=O)NCc1cccc(c1)-c1ccnc(n1)N2` [Compound 40], the IC50 on PLK3 (h) was greater than 10 µM; on AuroraB (h), greater than 10 µM; on CDK4/CyclinD1 (h) it was 1.62 µM; in the test on MDA-MB-231 it was greater than 10 µM; at GSK3β (h), 0.162 µM; in the test on A2780, 4.68 µM. Besides, the results for the IC50 in the test on HCT-116, on PLK2 (h) and at PLK4 (h) were 2.19 µM, greater than 10 µM and 0.288 µM, respectively.

Consider `COc1ccc2cc1CNCCNC(=O)CN1CCN(CC1)Cc1cc(ccc1N1CCOCC1)Nc1nccc-2n1` [Compound 126], for which the IC50 at PLK3 (h) is greater than 10 µM; at AuroraB (h), 8.71 µM; on CDK4/CyclinD1 (h) it was greater than 10 µM; in the test on MDA-MB-231, greater than 10 µM; at GSK3β (h), greater than 10 µM; in the test with A2780, 5.37 µM. Moreover, the IC50 in the test with HCT-116 is 8.71 µM; at PLK2 (h), greater than 10 µM; at PLK4 (h), 0.813 µM.
